Assays:
[1] = target: T1, SALL4 (1-300aa) protein (Homo sapiens, UniProt Q9UJQ4); assay: Thermal shift assay (TSA) with Sypro Orange; type: binding
T1 construct: SALL4 (1-300aa) cloned into this vector was expressed with the N-terminal 6-His tags; His6 (pET His6 TEV LIC vector 2B-T, TEV site) (N); made in house; host or cells: E. coli BL21 (DE3)/pLysS
T1 sequence (Q9UJQ4 1-300): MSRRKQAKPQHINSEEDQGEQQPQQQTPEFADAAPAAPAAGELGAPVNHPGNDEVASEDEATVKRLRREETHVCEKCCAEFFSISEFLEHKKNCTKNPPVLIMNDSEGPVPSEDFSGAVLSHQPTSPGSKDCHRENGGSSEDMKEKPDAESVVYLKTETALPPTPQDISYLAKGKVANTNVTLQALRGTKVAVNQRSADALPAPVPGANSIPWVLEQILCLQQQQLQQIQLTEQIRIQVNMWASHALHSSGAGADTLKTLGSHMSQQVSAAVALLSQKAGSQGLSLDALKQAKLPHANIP
Protocol: A library of 50,000 small molecules from the Novartis Biomedical Research Institute (NIBR) was screened at 50 μM and 100 μM against 13.8 μM of purified SALL4 (1-300aa) protein in the buffer containing potassium phosphate (100 mM) and NaCl (100 mM) at pH 7. Screening assay was performed in 384-well thin wall white PCR plates using LightCyler® 480 Real-Time PCR System (Roche Applied Sciences). A 7-min run was started at 30° C. and ended at 90° C. Sypro Orange was used as the sensitive fluorescent dye for monitoring thermal protein denaturation. Hits were defined as compounds that can induce a change in protein melting points 3 times higher than the standard deviations of the apo-protein melting point from DMSO control.
To experimentally assess the stoichiometry of the binding between SALL4 (1-300aa) and QE-18-WG07, the inventors titrated 13.8 μM of purified recombinant SALL4 (1-300aa) protein with 12 increasing concentrations of QE-18-WG07 and evaluated the dose-response correlation in the ΔTm shift by following the protocol for TSA in Example 7.

[2] = target: T2, IKZF3 (Homo sapiens, UniProt Q9UKT9); assay: Immunoblot of IKZF3 in SNU-398 HCC cells; type: cell-based; conditions: SNU-398 cells
T2 construct: with immunoblots in SNU-398 HCC cells; endogenous in cells; host or cells: SNU-398 HCC cells
T2 sequence (Q9UKT9 whole entry): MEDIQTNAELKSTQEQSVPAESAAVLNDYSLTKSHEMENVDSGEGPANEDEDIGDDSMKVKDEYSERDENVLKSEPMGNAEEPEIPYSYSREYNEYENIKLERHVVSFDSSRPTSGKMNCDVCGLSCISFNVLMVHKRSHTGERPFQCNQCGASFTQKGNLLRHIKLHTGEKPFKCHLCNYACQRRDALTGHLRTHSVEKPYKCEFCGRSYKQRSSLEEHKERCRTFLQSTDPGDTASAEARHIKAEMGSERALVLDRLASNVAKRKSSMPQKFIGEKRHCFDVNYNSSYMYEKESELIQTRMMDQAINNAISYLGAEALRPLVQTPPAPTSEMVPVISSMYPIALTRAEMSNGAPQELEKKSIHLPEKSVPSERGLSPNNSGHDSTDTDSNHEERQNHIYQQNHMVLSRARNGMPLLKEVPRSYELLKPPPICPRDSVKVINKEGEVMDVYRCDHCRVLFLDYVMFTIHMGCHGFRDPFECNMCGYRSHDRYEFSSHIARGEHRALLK
Protocol: RIPA buffer containing freshly added protease inhibitors (2 mM PMSF) and protease inhibitor cocktail was used for cell lysis. The lysed cells were incubated for 10 min on ice and subsequently centrifuged at 4° C. for 10 min at 14,000 rpm. The protein concentrations of cell lysates were assessed using Bradford Assay as per manufacturer's instructions. The samples were denatured using 4× Sample buffer at 95° C. for 5 min. The samples were size resolved using polyacrylamide gel (8%) and Mini-PROTEAN Tetra Cell module. The size-resolved proteins were transferred onto PVDF via electroblotting using Mini Trans-Blot® module. The membrane was blocked using 5% BSA in TBST. The membrane was incubated with appropriate primary antibody (overnight) and secondary antibody (1 h). Immobilon Crescendo Western HRP substrate was used for signal development and images were acquired using darkroom development techniques.

[3] = CellTiter-Glo viability assay, SALL4-low cell panel; type: cell-based, human; conditions: human, SNU-387, SNU-449, SNU-475 and H1299 cells (SALL4-low); SALL4-low cells, highest dose 30 μM, 72 h; read-out: cells remained viable
Protocol: (§1) Cells were plated in RPMI culture media (40 μL) in 384-well white, flat-bottom plates (Corning) and incubated at 37° C. in a humidified atmosphere of 5% CO2 overnight. The numbers of cells per well were 1,500 for SNU-398 and SNU-182, 750 for SNU-387, SNU-449, SNU-475 and SNU-423, and 1,000 for H661 and H1299. After overnight incubation, 10 μL of drug (1% DMSO in RPMI) at designed concentrations were added to the cells. The cells were then incubated for 16, 24, 48, 72, or 96 h at 37° C. in a humidified atmosphere of 5% CO2 before CellTiter-Glo reagent (10 μL) was dispensed to the wells. The cells were incubated at room temperature for a minimum of 10 min. After that, luminescence readings were recorded by a Microplate Reader (PHERAstar or Tecan Infinite M200 Pro) according to the manufacturer's instruction for measuring the luminescence.

[4] = system: SNU-387, SNU-449, SNU-475, and H1299 cells; assay: as above; type: cell-based, human; conditions: 72 h cell viability panel of HCC and lung cancer cell lines
Protocol: as §1

[5] = system: SNU-398 xenografts; assay: HCC mouse xenograft, anti-tumor efficacy; type: in vivo; conditions: for tumor shrinkage: 15 days
Protocol: Animals were maintained, and all animal work were performed following the protocols approved by the Institutional Animal Care and Use Committee. The SNU-398 cell line was cultured as described above in ‘Cell Culture’. To establish the SNU-398 xenografts, NOD.Cg−Prkdc^sc^i^dIl2rg^tm^1^Wjl/Sz (NSG) female mice (6-8 weeks) were anesthetized using 2% isoflurane USP, and 0.5×10^6 SNU-398 cells in 200 μL of 1:1 RPMI:Matrigel were subcutaneously injected to the mouse flanks. When tumors were palpable, mice were randomized to receive either QE treatment or vehicle containing 5% DMSO, 12.5% Ethanol, and 12.5% Cremophor EL in 70% 1× PBS. Freshly prepared vehicle or QE-18-WG07 was administered by intraperitoneal (IP) injection, once daily (qd) at 10 mg/kg in the pilot study and 5, 15, and 45 mg/kg for dose-expansion studies. Before each drug injection, mouse weight and tumor volume were monitored. Mice were euthanized once tumors reached more than 1.5 cm in diameter. The tumors were harvested, imaged and snap-frozen for storage at −80° C. until later use.

[6] = QE-18-WG07 0.0061 μM, 30 min incubation
[7] = QE-18-WG07 0.0122 μM, 30 min incubation
[8] = QE-18-WG07 0.0488 μM, 30 min incubation
[9] = QE-18-WG07 0.0977 μM, 30 min incubation
[10] = QE-18-WG07 0.1953 μM, 30 min incubation
[11] = QE-18-WG07 0.7813 μM, 30 min incubation
[12] = QE-18-WG07 1.5625 μM, 30 min incubation
[13] = QE-18-WG07 3.1250 μM, 30 min incubation
[14] = QE-18-WG07 6.2500 μM, 30 min incubation
[15] = QE-18-WG07 12.5000 μM, 30 min incubation
[16] = QE-18-WG07 25.0000 μM, 30 min incubation
[17] = QE-18-WG07 50.0000 μM, 30 min incubation

Question: Which “concentration at which ΔTm saturation occurs” value ([1]; 13.8 μM SALL4 (1-300aa), 30 min incubation) does the source give for `COc1ccccc1NC(=O)Nc1ccc([N+](=O)[O-])cc1O` [QE-18-WG07] here?
Answer: Its value is no less than 12.5 µM.

Question: What about the “SALL4 (1-300) Melting Temperature Shift (° C.) Rep 1” value [1, 6] of the same molecule?
Answer: The value was −0.357 °C.

Question: And the “SALL4 (1-300) Melting Temperature Shift (° C.) Rep 2” value [1, 6]?
Answer: The value was −0.357 °C.

Question: And the “SALL4 (1-300) Melting Temperature Shift (° C.) Rep 1” value [1, 7]?
Answer: The value was −0.267 °C.

Question: What about the “SALL4 (1-300) Melting Temperature Shift (° C.) Rep 2” value [1, 7] of the same molecule?
Answer: The value was −0.267 °C.

Question: What about the “SALL4 (1-300) Melting Temperature Shift (° C.) Rep 1” value [1, 8] of the same molecule?
Answer: The value was −0.077 °C.

Question: And the “SALL4 (1-300) Melting Temperature Shift (° C.) Rep 2” value [1, 8]?
Answer: The value was −0.357 °C.

Question: What about the “SALL4 (1-300) Melting Temperature Shift (° C.) Rep 1” value [1, 9] of the same molecule?
Answer: The value was −0.357 °C.

Question: And the “SALL4 (1-300) Melting Temperature Shift (° C.) Rep 2” value [1, 9]?
Answer: The value was −0.357 °C.

Question: What about the “SALL4 (1-300) Melting Temperature Shift (° C.) Rep 1” value [1, 10] of the same molecule?
Answer: The value was −0.267 °C.

Question: And the “SALL4 (1-300) Melting Temperature Shift (° C.) Rep 2” value [1, 10]?
Answer: The value was −0.267 °C.

Question: What about the “SALL4 (1-300) Melting Temperature Shift (° C.) Rep 1” value [1, 11] of the same molecule?
Answer: Its value is −0.167 °C.

Question: And the “SALL4 (1-300) Melting Temperature Shift (° C.) Rep 2” value [1, 11]?
Answer: The value was −0.167 °C.

Question: What about the “SALL4 (1-300) Melting Temperature Shift (° C.) Rep 1” value [1, 12] of the same molecule?
Answer: The value was 0.503 °C.

Question: And the “SALL4 (1-300) Melting Temperature Shift (° C.) Rep 2” value [1, 12]?
Answer: The value was 0.503 °C.

Question: And the “SALL4 (1-300) Melting Temperature Shift (° C.) Rep 1” value [1, 13]?
Answer: The value was 0.413 °C.

Question: And the “SALL4 (1-300) Melting Temperature Shift (° C.) Rep 2” value [1, 13]?
Answer: Its value is 0.793 °C.

Question: And the “SALL4 (1-300) Melting Temperature Shift (° C.) Rep 1” value [1, 14]?
Answer: Its value is 0.703 °C.

Question: And the “SALL4 (1-300) Melting Temperature Shift (° C.) Rep 2” value [1, 14]?
Answer: The value was 0.703 °C.

Question: What about the “SALL4 (1-300) Melting Temperature Shift (° C.) Rep 1” value [1, 15] of the same molecule?
Answer: Its value is 1.373 °C.

Question: What about the “SALL4 (1-300) Melting Temperature Shift (° C.) Rep 2” value [1, 15] of the same molecule?
Answer: The value was 1.083 °C.

Question: And the “SALL4 (1-300) Melting Temperature Shift (° C.) Rep 1” value [1, 16]?
Answer: Its value is 1.273 °C.

Question: And the “SALL4 (1-300) Melting Temperature Shift (° C.) Rep 2” value [1, 16]?
Answer: Its value is 1.273 °C.

Question: And the “SALL4 (1-300) Melting Temperature Shift (° C.) Rep 1” value [1, 17]?
Answer: The value was 1.273 °C.

Question: What about the “SALL4 (1-300) Melting Temperature Shift (° C.) Rep 2” value [1, 17] of the same molecule?
Answer: Its value is 0.983 °C.

Question: And the ΔTm at 100 µM ([1]; SALL4(1-300) melting temperature shift, mean ± SD (n = 2), [compound] = 100 μM, 30 min)?
Answer: Its ΔTm at 100 µM is 1.15 ± 0.01 °C.

Question: And the “Thermal Shift Assay Type” value ([1]; [compound] = 100 μM, 30 min)?
Answer: Its value is “Positive shifter”.

Question: And the “degradation of IKZF3” value [2]?
Answer: The value was “did not degrade”.

Question: And the viability at 72 h, 30 μM [3]?
Answer: Its viability at 72 h, 30 μM is 30 to 60%.

Question: And the “selectivity of anti-proliferative effect, SALL4-high over SALL4-low cancer cells” value [4]?
Answer: The value was “up to 58 fold”.

Question: What about the tumor shrinkage ([5]; 5 mg/kg IP daily) of the same molecule?
Answer: The tumor shrinkage was 40%.

Question: What about the “reduction of tumor sizes vs vehicle control” value ([5]; 10 mg/kg IP daily, 10 days) of the same molecule?
Answer: Its value is 64%.

Question: What about the tumor shrinkage ([5]; 15 mg/kg IP daily) of the same molecule?
Answer: Its tumor shrinkage is 60%.

Question: And the tumor shrinkage ([5]; 45 mg/kg IP daily)?
Answer: The tumor shrinkage was 70%.

— patent publication US20240335429A1, “MOLECULAR GLUE AND SALL4 DEGRADER” (National University of Singapore, priority 2021, published 2024)
